Data from article PMC8213057, “Targeting ALK2: An Open Science Approach to Developing Therapeutics for the Treatment of Diffuse Intrinsic Pontine Glioma” (Journal of Medicinal Chemistry, 2020).
Where “and” joins values, the source holds several entries; their conditions need not be identical. Equal values may be shown once.

Legend:
CDK1/cyclin B = CDK1/cyclin B (Homo sapiens, UniProt P06493); conditions: 1 μM; Run 1, Run 2
EPHB4 = biological target: T1, EPHB4 (Homo sapiens, UniProt P54760); conditions: 1 μM; Run 1, Run 2
T1 sequence (P54760 16-987): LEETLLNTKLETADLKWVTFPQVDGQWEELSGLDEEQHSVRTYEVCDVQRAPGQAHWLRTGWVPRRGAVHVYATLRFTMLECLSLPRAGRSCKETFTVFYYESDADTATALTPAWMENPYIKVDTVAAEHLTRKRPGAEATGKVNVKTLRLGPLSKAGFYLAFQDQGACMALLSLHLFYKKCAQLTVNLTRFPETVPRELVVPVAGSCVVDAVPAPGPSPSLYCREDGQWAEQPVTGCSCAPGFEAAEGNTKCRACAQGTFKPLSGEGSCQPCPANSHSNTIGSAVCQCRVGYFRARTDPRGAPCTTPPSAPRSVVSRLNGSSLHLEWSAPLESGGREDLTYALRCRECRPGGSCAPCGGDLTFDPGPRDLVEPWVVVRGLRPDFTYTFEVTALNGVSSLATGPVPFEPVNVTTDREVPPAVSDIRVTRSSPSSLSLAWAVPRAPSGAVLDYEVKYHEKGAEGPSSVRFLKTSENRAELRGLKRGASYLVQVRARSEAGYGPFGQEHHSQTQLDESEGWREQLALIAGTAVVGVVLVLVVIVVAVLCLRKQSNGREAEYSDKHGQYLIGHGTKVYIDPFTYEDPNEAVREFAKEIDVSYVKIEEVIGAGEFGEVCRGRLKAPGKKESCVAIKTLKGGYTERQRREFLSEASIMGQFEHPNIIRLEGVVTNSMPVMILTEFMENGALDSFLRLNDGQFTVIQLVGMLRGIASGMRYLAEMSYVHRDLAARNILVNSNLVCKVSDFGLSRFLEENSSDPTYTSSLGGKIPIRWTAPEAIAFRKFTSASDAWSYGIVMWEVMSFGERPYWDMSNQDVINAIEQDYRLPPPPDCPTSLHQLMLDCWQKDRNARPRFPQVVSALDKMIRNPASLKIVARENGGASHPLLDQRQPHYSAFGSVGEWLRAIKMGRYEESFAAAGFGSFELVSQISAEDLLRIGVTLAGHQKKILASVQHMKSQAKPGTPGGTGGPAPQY

HIPK2 = HIPK2 (Homo sapiens, UniProt Q9H2X6); conditions: 1 μM; Run 1, Run 2
WEE1 = WEE1 (Homo sapiens, UniProt P30291); conditions: 1 μM; Run 1, Run 2
Aurora C = biological target: T2, Aurora C (Homo sapiens, UniProt Q9UQB9); experiment: biochemical; conditions: read-out: % enzyme activity, 1 μM; Run 1, Run 2
T2 sequence (Q9UQB9 1-309): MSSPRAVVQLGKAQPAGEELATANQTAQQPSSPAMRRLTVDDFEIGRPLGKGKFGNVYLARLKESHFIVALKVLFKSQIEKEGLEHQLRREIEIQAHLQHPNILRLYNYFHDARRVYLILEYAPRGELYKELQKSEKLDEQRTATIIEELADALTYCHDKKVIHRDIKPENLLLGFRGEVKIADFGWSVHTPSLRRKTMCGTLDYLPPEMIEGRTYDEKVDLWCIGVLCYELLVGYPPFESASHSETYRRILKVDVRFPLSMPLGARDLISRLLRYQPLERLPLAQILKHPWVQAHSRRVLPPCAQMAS

AXL = biological target: T3, AXL (Homo sapiens, UniProt P30530); experiment: biochemical; conditions: read-out: % enzyme activity, 1 μM; Run 1, Run 2
T3 sequence (P30530 26-894): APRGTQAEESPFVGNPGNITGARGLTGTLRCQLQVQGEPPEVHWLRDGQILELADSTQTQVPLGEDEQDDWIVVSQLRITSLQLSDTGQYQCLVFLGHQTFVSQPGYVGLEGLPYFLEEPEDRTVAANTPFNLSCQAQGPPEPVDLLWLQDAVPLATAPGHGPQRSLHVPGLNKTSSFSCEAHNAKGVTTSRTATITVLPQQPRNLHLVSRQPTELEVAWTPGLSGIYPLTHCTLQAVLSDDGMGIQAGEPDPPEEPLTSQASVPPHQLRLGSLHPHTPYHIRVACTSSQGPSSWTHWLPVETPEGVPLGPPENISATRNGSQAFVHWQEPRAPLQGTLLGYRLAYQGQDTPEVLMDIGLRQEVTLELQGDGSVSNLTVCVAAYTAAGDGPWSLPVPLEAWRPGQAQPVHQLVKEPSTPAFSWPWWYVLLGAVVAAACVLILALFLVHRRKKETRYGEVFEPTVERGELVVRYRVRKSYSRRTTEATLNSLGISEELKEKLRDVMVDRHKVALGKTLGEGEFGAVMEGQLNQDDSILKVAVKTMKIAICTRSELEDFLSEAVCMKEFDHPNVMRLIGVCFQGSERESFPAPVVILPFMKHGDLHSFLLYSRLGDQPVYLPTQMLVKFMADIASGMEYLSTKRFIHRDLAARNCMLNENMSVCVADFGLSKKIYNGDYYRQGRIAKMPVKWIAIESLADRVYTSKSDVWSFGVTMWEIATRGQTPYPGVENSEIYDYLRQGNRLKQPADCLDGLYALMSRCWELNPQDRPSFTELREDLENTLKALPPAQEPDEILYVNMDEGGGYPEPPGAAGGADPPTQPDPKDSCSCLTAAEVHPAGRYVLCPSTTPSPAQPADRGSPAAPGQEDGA

CDK2/cyclin E2 = CDK2/cyclin E2 (Homo sapiens, UniProt P24941); experiment: biochemical; conditions: read-out: % enzyme activity, 1 μM; Run 1, Run 2
JAK2 = JAK2 (Homo sapiens, UniProt O60674); experiment: biochemical; conditions: read-out: % enzyme activity, 1 μM; Run 1, Run 2
JNK1 = JNK1 (Homo sapiens, UniProt P45983); experiment: biochemical; conditions: read-out: % enzyme activity, 1 μM; Run 1, Run 2
PDGFRa = PDGFRa (Homo sapiens, UniProt P16234); experiment: biochemical; conditions: read-out: % enzyme activity, 1 μM; Run 1, Run 2
Sequence of PDGFRa (P16234 24-1089): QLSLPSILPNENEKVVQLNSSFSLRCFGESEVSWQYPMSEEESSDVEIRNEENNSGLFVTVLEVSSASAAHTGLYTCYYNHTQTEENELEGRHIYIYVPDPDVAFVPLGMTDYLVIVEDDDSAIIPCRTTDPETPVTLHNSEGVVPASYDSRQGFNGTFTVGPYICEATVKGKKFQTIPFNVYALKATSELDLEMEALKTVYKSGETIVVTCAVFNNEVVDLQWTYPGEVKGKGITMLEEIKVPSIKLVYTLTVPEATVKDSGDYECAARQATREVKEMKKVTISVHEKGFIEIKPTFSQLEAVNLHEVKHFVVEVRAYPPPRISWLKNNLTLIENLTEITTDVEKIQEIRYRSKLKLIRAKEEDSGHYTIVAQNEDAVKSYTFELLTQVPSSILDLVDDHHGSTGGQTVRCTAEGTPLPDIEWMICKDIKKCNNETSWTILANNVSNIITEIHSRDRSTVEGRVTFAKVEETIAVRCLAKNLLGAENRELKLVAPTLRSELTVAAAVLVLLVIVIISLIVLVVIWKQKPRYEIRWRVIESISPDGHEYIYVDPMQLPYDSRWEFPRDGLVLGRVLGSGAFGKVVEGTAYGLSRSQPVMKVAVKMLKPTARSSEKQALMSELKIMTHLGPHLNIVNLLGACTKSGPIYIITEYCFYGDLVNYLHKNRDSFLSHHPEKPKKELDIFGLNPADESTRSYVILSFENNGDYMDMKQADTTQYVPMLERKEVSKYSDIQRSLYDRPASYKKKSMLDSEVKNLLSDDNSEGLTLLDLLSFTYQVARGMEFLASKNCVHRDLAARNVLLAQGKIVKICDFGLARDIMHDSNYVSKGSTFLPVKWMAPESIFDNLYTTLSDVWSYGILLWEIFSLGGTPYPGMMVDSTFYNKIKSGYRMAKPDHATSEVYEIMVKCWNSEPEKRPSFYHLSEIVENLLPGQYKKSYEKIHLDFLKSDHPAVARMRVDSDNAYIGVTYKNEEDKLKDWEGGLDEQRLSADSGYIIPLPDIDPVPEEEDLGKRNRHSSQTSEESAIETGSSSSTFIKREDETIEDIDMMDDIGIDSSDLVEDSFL

Sequence of CDK1/cyclin B (P06493 whole entry): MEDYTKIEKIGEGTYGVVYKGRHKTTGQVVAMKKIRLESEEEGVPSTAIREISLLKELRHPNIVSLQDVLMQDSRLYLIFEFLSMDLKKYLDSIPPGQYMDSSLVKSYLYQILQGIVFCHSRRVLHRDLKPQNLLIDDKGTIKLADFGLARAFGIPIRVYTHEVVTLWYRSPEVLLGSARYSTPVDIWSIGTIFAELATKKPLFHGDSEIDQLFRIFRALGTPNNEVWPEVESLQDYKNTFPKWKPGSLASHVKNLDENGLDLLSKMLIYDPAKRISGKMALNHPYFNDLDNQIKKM
Sequence of CDK1/cyclin B (P14635 whole entry partner): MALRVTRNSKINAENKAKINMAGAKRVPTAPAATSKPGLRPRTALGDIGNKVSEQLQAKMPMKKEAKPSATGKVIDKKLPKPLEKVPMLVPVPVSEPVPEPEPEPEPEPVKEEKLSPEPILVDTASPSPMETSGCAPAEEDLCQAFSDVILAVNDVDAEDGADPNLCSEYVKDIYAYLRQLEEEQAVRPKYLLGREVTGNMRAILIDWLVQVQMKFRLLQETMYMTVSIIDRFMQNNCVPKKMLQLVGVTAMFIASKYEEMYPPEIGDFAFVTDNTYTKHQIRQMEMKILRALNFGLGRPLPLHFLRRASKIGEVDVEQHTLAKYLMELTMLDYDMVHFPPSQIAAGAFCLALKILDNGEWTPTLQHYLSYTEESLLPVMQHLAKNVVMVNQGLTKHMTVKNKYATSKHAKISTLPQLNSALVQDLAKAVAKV
Sequence of HIPK2 (Q9H2X6 whole entry): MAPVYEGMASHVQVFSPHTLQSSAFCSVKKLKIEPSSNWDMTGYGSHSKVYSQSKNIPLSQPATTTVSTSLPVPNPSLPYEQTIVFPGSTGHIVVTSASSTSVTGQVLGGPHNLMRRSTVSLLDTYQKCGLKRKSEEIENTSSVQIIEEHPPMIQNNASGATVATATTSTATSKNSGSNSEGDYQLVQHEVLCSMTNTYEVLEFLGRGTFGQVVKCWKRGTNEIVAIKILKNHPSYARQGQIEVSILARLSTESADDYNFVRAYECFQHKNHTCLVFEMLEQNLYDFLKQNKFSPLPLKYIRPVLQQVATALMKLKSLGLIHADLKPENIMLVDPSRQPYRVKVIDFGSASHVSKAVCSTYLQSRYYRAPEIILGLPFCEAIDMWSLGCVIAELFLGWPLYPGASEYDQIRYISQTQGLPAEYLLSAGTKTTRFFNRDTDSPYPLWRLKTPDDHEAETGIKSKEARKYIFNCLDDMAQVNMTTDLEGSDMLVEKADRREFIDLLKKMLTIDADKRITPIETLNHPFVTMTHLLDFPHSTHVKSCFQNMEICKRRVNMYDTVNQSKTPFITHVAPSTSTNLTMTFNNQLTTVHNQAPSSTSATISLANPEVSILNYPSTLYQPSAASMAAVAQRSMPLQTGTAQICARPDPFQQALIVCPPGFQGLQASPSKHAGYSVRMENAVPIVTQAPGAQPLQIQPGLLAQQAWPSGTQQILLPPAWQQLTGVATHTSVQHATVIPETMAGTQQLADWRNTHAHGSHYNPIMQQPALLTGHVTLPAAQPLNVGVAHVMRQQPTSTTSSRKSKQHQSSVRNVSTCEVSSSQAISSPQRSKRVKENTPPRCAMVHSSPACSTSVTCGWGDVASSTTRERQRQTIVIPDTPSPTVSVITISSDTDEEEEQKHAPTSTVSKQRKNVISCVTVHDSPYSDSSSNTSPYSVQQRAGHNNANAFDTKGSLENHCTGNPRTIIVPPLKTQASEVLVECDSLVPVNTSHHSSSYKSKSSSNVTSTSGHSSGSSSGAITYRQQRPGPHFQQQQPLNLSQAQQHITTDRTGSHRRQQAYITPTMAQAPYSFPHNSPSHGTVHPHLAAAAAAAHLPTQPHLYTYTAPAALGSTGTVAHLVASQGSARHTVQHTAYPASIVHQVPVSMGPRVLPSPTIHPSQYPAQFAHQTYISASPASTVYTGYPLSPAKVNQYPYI
Sequence of JAK2 (O60674 whole entry): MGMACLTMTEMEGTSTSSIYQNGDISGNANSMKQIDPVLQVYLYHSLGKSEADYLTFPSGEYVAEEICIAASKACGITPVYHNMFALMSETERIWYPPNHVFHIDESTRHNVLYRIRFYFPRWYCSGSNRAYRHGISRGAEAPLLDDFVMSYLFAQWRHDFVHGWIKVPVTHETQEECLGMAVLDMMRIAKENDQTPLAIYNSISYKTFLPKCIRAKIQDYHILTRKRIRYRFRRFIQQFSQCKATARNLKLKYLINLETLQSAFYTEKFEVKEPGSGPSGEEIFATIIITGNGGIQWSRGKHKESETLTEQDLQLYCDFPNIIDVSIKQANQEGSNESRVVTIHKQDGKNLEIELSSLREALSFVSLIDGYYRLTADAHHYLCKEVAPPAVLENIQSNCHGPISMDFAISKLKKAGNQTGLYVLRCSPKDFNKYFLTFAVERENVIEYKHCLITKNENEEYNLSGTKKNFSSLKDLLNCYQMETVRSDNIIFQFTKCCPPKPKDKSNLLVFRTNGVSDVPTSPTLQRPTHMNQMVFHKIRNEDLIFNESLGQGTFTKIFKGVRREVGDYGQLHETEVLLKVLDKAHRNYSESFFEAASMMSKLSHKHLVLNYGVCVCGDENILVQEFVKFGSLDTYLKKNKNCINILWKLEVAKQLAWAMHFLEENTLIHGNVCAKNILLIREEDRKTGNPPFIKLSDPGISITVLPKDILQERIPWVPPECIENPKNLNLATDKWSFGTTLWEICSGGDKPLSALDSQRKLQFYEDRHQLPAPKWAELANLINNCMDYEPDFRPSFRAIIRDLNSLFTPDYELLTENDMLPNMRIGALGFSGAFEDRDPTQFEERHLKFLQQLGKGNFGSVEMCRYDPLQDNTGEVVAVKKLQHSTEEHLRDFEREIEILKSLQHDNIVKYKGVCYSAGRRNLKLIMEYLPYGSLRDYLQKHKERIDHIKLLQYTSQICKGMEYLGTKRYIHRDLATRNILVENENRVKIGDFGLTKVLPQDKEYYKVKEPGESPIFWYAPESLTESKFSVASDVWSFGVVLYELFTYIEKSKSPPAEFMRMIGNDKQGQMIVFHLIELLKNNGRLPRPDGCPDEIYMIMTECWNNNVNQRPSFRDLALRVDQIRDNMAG
Sequence of JNK1 (P45983 whole entry): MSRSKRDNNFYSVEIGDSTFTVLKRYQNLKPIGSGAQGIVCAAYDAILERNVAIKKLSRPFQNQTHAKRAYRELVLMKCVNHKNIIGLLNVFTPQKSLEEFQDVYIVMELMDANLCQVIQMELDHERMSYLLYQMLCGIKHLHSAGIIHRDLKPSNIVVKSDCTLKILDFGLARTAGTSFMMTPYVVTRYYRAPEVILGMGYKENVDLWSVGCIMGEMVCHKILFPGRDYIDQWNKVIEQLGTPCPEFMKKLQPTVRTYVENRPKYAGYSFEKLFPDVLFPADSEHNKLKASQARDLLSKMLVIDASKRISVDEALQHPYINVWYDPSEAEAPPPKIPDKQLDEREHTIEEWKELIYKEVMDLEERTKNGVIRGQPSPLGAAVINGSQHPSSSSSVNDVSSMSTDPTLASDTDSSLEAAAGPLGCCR

| SMILES | % enzyme activity at 1 μM (MINK/MINK1) | % enzyme activity (CDK1/cyclin B) [%] | % enzyme activity (EPHB4) [%] | % enzyme activity (HIPK2) [%] | % enzyme activity (WEE1) [%] | remaining activity at 1 µM (Aurora C) [%] | remaining activity at 1 µM (AXL) [%] | remaining activity at 1 µM (CDK2/cyclin E2) [%] | remaining activity at 1 µM (JAK2) [%] | remaining activity at 1 µM (JNK1) [%] | remaining activity at 1 µM (PDGFRa) [%] |
| --- | --- | --- | --- | --- | --- | --- | --- | --- | --- | --- | --- |
| COc1cc(-c2cncc(-c3ccc(N4C[C@@H](C)N(C)[C@@H](C)C4)cc3)c2C)cc(F)c1C(N)=O [Compound 26c, 2-Fluoro-6-methoxy-4-(4-methyl-5-(4-((3R,5S)-3,4,5-trimethylpiperazin-1-yl)phenyl)pyridin-3-yl)benzamide] | 30.2% and 29.6% | 91.98 | 91.07 | 101.85 | 99.73 | 100 | 91.3 | 95 | 88.6 | 86.9 | 81.9 |
| COc1cc(-c2cncc(-c3ccc(N4CCN(C)CC4)cc3)c2C)cc(F)c1C(N)=O [Compound 26a, 2-Fluoro-6-methoxy-4-(4-methyl-5-(4-(4-methylpiperazin-1-yl)phenyl)pyridin-3-yl)benzamide] | 24.1% and 22.6% | 92.35 | 93.42 | 97.88 | 104.15 | 105 | 81.8 | 108 | 93.5 | 90.6 | 82.9 |
